Assay results as given in article PMC10353390, “Biological and Structural Analyses of New Potent Allosteric Inhibitors of HIV-1 Integrase” (Antimicrobial Agents and Chemotherapy, 2023).
Like-named read-outs stand apart in the source and are kept apart here.

Columns and labels:
[1] = Cytotoxicity assay in MT4 cells; type: cell-based; settings: human, MT4 cells (proliferating human T-cell line), CellTiter-Glo
Source text: Growth inhibition was monitored in a proliferating human T-cell line (MT4) with different concentrations of compounds, using the CellTiter-Glo luminescent reagent (Promega), as previously described ([12]).

[2] = system: HIV-1 strains resistant to INSTIs, NRTIs, NNRTIs or PIs; type: cell-based
Outline: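 NL4-3-based recombinant mutants and drug-resistant clinical isolates; exponentially growing MT4 cells (10^6/mL) infected at MOI 0.001 for 2 h with compound at varying concentrations. Protection quantified as cell viability by CellTiter-Glo luminescence.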

[3] = system: primary HIV-1 isolates with polymorphisms at IN positions 124 and 125; assay: Multiple-round infection of MT4 cells with primary HIV-1 isolates polymorphic at IN positions 124 and 125; type: cell-based; settings: primary isolate
Outline: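 Exponentially growing MT4 cells at 10^6/mL infected for 2 h at MOI 0.001 in the presence of varying compound concentrations. Cell viability quantified by CellTiter-Glo luminescence.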

[4] = system: lab-adapted and clinical HIV-1 isolates; assay: Infection assays in primary T CD4+ lymphocytes; type: cell-based; settings: Human immunodeficiency virus 1, Lymphocyte
[5] = system: recombinant NL4-3 viruses with polymorphisms at IN positions 124 and 125; assay: Multiple-round infection of MT4 cells with recombinant NL4-3 viruses polymorphic at IN positions 124 and 125; type: cell-based, HIV-1
Outline: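 MT4 cells (10^6/mL) infected with NL4-3 carrying IN 124/125 polymorphisms (15 combinations) at MOI 0.001 for 2 h with compound present. Viability read by CellTiter-Glo luminescence; EC50 expressed as fold change versus wild-type NL4-3 (Thr124/Thr125).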

[6] = system: VSV-G-pseudotyped NL4-3Δenv-luc; assay: microbe, parasite or virus in culture; type: cell-based, HIV-1
[7] = biological target: CCD of HIV-1 IN and IBD of LEDGF/p75 (Human immunodeficiency virus type 1 group M subtype B, UniProt P12497); assay: biochemical
[8] = biological target: HIV-1 IN-LEDGF/p75 interaction (Human immunodeficiency virus type 1 group M subtype B, UniProt P12497); assay: biochemical
[9] = system: NL4-3 HIV-1 with INLAI-selected IN single point mutations; type: cell-based
NL4-3 HIV-1 strain = assay: Multiple-round infection assay in MT4 cells, NL4-3; type: cell-based; settings: MT4 cells
HXB2 HIV-1 strain = assay: Multiple-round infection assay in MT4 cells, HXB2; type: cell-based; settings: Human immunodeficiency virus 1, HXB2; multiple-round infection, MT4 cells; mean ± SD, n > 5; read-out: EC50 HXB2
Outline: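 MT4 cells at 10^6/mL were infected with HIV-1 at MOI 0.001 for 2 h in the presence of compound dilutions. Cell viability, measured by CellTiter-Glo luminescence, served as the read-out of protection in this multiple-round infection.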

HIV-1 IN = biological target: T1, HIV-1 IN (Human immunodeficiency virus type 1 group M subtype B, UniProt P12497); assay: HTRF IN multimerization assay; type: biochemical; settings: mean ± SD
T1 construct: made in house
Source text: A key property of INLAIs is the ability to promote HIV-1 IN homo-multimerization ([39][–][42]). […] The maximal signal (plateau) in our IN aggregation assay corresponds to the highest HTRF signal increase under saturating INLAI concentration, relative to baseline level. Thus, MUT916, MUT884, MUT871, and MUT872 increased HIV-1 IN aggregation 3.7 to 4.4-fold, while BDM-2, BI-224436, and S-I-82 did so 5 to 6-fold (Table 1).

[10] = INSTI-resistant, NL4-3 background

Cc1ccc(C2CC2)c(-c2ccc3c(c2C)CCCO3)c1[C@H](OC1CC1)C(=O)O [MUT884]
CC50 [1]: 78000 ± 12000 nM
Fold change in EC50 relative to NL4-3, E92Q [2, 10]: 1
Fold change in EC50 relative to NL4-3, G140S [2, 10]: 1
Fold change in EC50 relative to NL4-3, G140S/Q148H [2, 10]: 1
Fold change in EC50 relative to NL4-3, N155H [2, 10]: 1
Fold change in EC50 relative to NL4-3, Q148H [2, 10]: 1
Fold change in EC50 relative to NL4-3, Y143R [2, 10]: 0.5
Fold change in EC50 relative to NL4-3, NLAY351717 ([2]; NRTI-resistant clone): 1
Fold change in EC50 relative to NL4-3, NLAY351753 ([2]; NRTI/NNRTI-resistant clone): 1
Fold change in EC50 relative to NL4-3, K103N/Y181C ([2]; NRTI/NNRTIs group, NL4-3 background): 1
Fold change in EC50 relative to NL4-3, ARP-4595 ([2]; PI-resistant virus): 1
Fold change in EC50 relative to NL4-3, ARP-4596 ([2]; PI-resistant virus): 1
Fold change in EC50 relative to NL4-3, ARP-11801 ([2]; PI-resistant virus): 3
Fold change in EC50 relative to NL4-3, ARP-11803 ([2]; PI-resistant virus): 2
Fold change in EC50 relative to NL4-3, ARP-11807 ([2]; PI-resistant virus): 1
Fold change in EC50 relative to NL4-3, ARP-11808 ([2]; PI-resistant virus): 2
Fold change in EC50 relative to parental NL4-3, CAM2BBY (CRF02) ([3]; IN 124/125 AA): 1
Fold change in EC50 relative to parental NL4-3, E0836M4 (D) ([3]; IN 124/125 AA): 1
Fold change in EC50 relative to parental NL4-3, KER2008 (A) ([3]; IN 124/125 AA): 0.5
Fold change in EC50 relative to parental NL4-3, NP1525 (CRF01) ([3]; IN 124/125 AA): 1
Fold change in EC50 relative to parental NL4-3, NP1695 (CRF02) ([3]; IN 124/125 AA): 2
Fold change in EC50 relative to parental NL4-3, TZA125 (C) ([3]; IN 124/125 AA): 0.3
Fold change in EC50 relative to parental NL4-3, KSM4030 (A) ([3]; IN 124/125 GA): 1
Fold change in EC50 relative to parental NL4-3, vGA (C) ([3]; IN 124/125 GA): 5
Fold change in EC50 relative to parental NL4-3, 99ET14 (C) ([3]; IN 124/125 NA): 1
Fold change in EC50 relative to parental NL4-3, NP1538 (B) ([3]; IN 124/125 NA): 3
Fold change in EC50 relative to parental NL4-3, vNA_1 (B) ([3]; IN 124/125 NA): 3
Fold change in EC50 relative to parental NL4-3, vNA_2 (CRF02) ([3]; IN 124/125 NA): 4
Fold change in EC50 relative to parental NL4-3, vNV (B) ([3]; IN 124/125 NV): 2
Fold change in EC50 relative to parental NL4-3, vSA_1 (B) ([3]; IN 124/125 SA): 2
Fold change in EC50 relative to parental NL4-3, vSA_2 (CRF02) ([3]; IN 124/125 SA): 2
Fold change in EC50 relative to parental NL4-3, vTA_1 (B) ([3]; IN 124/125 TA): 1
Fold change in EC50 relative to parental NL4-3, vTA_2 (CRF02) ([3]; IN 124/125 TA): 2
EC50 ([4]; read-out: EC50 33913N (B)): 5.8 ± 3.2 nM
EC50 ([4]; read-out: EC50 HXB2 (B)): 10 ± 6 nM
EC50 ([4]; read-out: EC50 KER2008 (A)): 19 ± 3 nM
EC50 ([4]; read-out: EC50 NL4-3 (B)): 15 ± 4 nM
EC50 ([4]; read-out: EC50 NP1525 (CRF01_AE)): 12 ± 3 nM
EC50 ([4]; read-out: EC50 NP1538 (B)): 41 ± 2 nM
Fold change in EC50 relative to parental NL4-3, AA ([5]; recombinant NL4-3, IN 124/125 AA): 0.4
Fold change in EC50 relative to parental NL4-3, AM ([5]; recombinant NL4-3, IN 124/125 AM): 0.2
Fold change in EC50 relative to parental NL4-3, AT ([5]; recombinant NL4-3, IN 124/125 AT): 1
Fold change in EC50 relative to parental NL4-3, AV ([5]; recombinant NL4-3, IN 124/125 AV): 0.5
Fold change in EC50 relative to parental NL4-3, GA ([5]; recombinant NL4-3, IN 124/125 GA): 1
Fold change in EC50 relative to parental NL4-3, GT ([5]; recombinant NL4-3, IN 124/125 GT): 2
Fold change in EC50 relative to parental NL4-3, NA ([5]; recombinant NL4-3, IN 124/125 NA): 2
Fold change in EC50 relative to parental NL4-3, NT ([5]; recombinant NL4-3, IN 124/125 NT): 1
Fold change in EC50 relative to parental NL4-3, NV ([5]; recombinant NL4-3, IN 124/125 NV): 1
Fold change in EC50 relative to parental NL4-3, SA ([5]; recombinant NL4-3, IN 124/125 SA): 1
Fold change in EC50 relative to parental NL4-3, ST ([5]; recombinant NL4-3, IN 124/125 ST): 1
Fold change in EC50 relative to parental NL4-3, TA ([5]; recombinant NL4-3, IN 124/125 TA): 1
Fold change in EC50 relative to parental NL4-3, TM ([5]; recombinant NL4-3, IN 124/125 TM): 0.2
Fold change in EC50 relative to parental NL4-3, TV ([5]; recombinant NL4-3, IN 124/125 TV): 1
EC50 ratio (single/multiple-round infection) [6]: 260
EC50 ([6]; Human immunodeficiency virus 1, NL43, MT4, read-out: EC50 in single-round infection): 3900 ± 800 nM
IC50 [7]: 82 ± 21 nM
IC50 [8]: 62 ± 9 nM
EC50 fold change compared to wild type NL4-3, A128T [9]: 5
EC50 fold change compared to wild type NL4-3, H171Q [9]: 1
EC50 fold change compared to wild type NL4-3, N222K [9]: 3
EC50 fold change compared to wild type NL4-3, T174I [9]: 12
EC50 fold change compared to wild type NL4-3, Y99H [9]: 2
EC90 (NL4-3 HIV-1 strain; Human immunodeficiency virus 1, NL43, multiple-round infection, from dose response curves, read-out: EC90 NL4-3): 23 ± 13 nM
EC50 (NL4-3 HIV-1 strain; Human immunodeficiency virus 1, NL43, multiple-round infection, mean ± SD, n > 5, read-out: EC50 NL4-3): 15 ± 5 nM
Selectivity index CC50/EC50 NL4-3 (NL4-3 HIV-1 strain): 5,200
EC50 (HXB2 HIV-1 strain): 6.3 ± 1.1 nM
AC50 (HIV-1 IN; concentration for 50% maximum activation of multimerization): 22 ± 4 nM
IN multimerization Plateau (HIV-1 IN; maximum multimerization reached versus baseline): 400 ± 71%
